{"source": "patent US20260028390A1", "about": "“ALPHA1-ANTITRYPSIN FOR USE IN THE TREATMENT OF DISEASES OR DISORDERS OF THE NERVOUS SYSTEM SUCH AS CHRONIC INFLAMMATORY DEMYELINATING POLYNEUROPATHY” (Ageronix SA, priority 2022, published 2026)", "key": {"[1]": {"biological_target": "T1, Recombinant Human TACE/ADAM17 (Homo sapiens, UniProt P78536)", "T1 construct": "purchased R&D Systems 930-ADB-010", "T1 sequence (P78536 215-671 limits assumed)": "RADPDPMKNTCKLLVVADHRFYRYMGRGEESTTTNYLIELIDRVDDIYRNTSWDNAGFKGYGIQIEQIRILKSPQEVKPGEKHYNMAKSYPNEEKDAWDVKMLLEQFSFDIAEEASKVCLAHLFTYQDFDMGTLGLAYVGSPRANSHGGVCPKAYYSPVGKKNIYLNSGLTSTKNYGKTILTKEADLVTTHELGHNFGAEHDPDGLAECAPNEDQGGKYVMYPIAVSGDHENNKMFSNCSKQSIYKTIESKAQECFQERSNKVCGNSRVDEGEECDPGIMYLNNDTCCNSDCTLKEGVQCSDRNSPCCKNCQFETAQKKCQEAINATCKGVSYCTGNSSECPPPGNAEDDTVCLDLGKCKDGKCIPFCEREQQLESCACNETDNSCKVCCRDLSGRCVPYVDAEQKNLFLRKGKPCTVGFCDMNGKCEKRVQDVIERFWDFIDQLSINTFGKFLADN", "test": "Cell free TACE/ADAM17 activity", "type": "biochemical", "conditions": "cell-free assay; AAT Sigma Aldrich, batch A6150; read-out: IC50 of TACE activity inhibition", "method": "TACE activity and its inhibition by human AAT (AAT) was performed with Recombinant Human TACE/ADAM17 kit (930-ADB and ES003, R&D Systems) in black 96-well immuno plates (437111, ThermoFisher Scientific). The enzymatic activity of TACE/ADAM17 was measured by mixing 0.005 μg of rhTACE with 10 μM of Mca-PLAQAV-Dpa-RSSSR-NH2 fluorogenic peptide substrate III in assay buffer (25 mM Tris, 2.5 μM ZnCl2, 0.005% Brij-35 (w/v), pH 9.0) to a final volume of 100 μl. AAT (Sigma Aldrich, batch A6150) was resuspended in water (vehicle), control TACE/ADAM17 activity was assessed in presence of the vehicle (amount used for AAT 100 μM). AAT was added at different concentration (0, 6.25, 12.5, 25, 50 and 100 μM) to assess its dose-dependent inhibition of TACE/ADAM17. All conditions were performed in triplicates. Activity was measured as relative fluorescent unit (RFU) in a kinetic mode (9 time points over 5 min) with a SpectraMax iD3 Microplate Reader (low PMT gain, is exposition, top read at 1 mm, wavelength: excitation 320 nm, emission 405 nm). Bar graph as percentage of control activity was obtained by averaging the values obtained over the 5 min for each of the condition.\nTACE activity is assessed according to the manufacturer's instruction (Recombinant Human TACE/ADAM17 kit, 930-ADB, R&D Systems) in kinetic mode, without or with different AAT concentration. All conditions were done in triplicates and are shown as mean±SD (FIGS. 5A, 5B and 5C).\nADAM-17 activity and its inhibition by human peptide 8 was measured with Recombinant Human ADAM-17 kit (Recombinant Human TACE/ADAM17 Protein, CF: 930-ADB-010 and Mca-PLAQAV-Dpa-RSSSR-NH2 Fluorogenic Peptide Substrate:ES003; R&D Systems) in black 96-well immunoplates (437111; Thermo Fisher Scientific). The enzymatic activity of ADAM-17 was measured by mixing 0.005 μg of rhADAM-17 with 10 μM of Mca-PLAQAV-Dpa-RSSSR-NH2 fluorogenic peptide substrate III in assay buffer (25 mM Tris, 2.5 μM ZnCl2, 0.005% Brij-35 (w/v), pH 9.0) to a final volume of 100 μL. Peptide 8 (Syngene) was dissolved in DMSO and diluted to the desired concentration in assay buffer. Control ADAM-17 activity was assessed in the presence of the assay buffer. […] All conditions were performed in triplicate. Activity was measured as relative fluorescent units (RFU) in endpoint mode (5 min) with a SpectraMax iD3 Microplate Reader (automatic PMT gain, wavelengths: excitation 320 nm, emission 405 nm)."}, "[2]": {"test": "Body weight, CMT1A mouse study (AAT 50 mg/kg sc twice daily)", "type": "in vivo", "excerpt": "As a murine model of CMT1A we used C3-PMP22 transgenic mice (B6.Cg-Tg(PMP22)C3Fbas/J, The Jackson Laboratory) which express three copies of a wild-type human peripheral myelin protein 22 (PMP22) gene (Verhamme, Camiel, et al. Journal of Neuropathology & Experimental Neurology 70.5 (2011): 386-398). Mice were housed in macrolon cages with filter hoods, in a continuously air-filtered room, thereby avoiding contamination. During experiments, paired animals were caged at a constant temperature with a day/night cycle of 12/12 hours. Animals were fed (control tap water and nutrition) ad libitum. Animal protocol is approved by the Animal Studies Committee of Languedoc Roussillon. This protocol and the laboratory procedures comply with French legislation, which implements the European Directives (Reference Number: D3417223, APAFIS #23920-2020020320279696 v3). Animal health was followed on a daily basis to ensure that only animals in good health enter the testing procedures and follow up the study.\nAnimals were split in 3 groups (wild-type control (subcutaneous 0.9% NaCl), CMT1A-vehicle (subcutaneous 0.9% NaCl), CMT1A-human alpha-1 antitrypsin (subcutaneous, twice daily, 50 mg/kg per injection)) of 3 mice each (3 weeks old males of 18±2.5 g at the beginning of study) and all went through the following protocol after 7 days of acclimation on site."}, "[3]": {"tested_on": "CMT1A mice B6.Cg-Tg(PMP22)C3Fbas/J", "test": "Rotarod latency to fall, CMT mice treated with AAT 180 mg/kg/day sc", "type": "in vivo, mouse", "method": "CMT MOUSE MODEL: Non-humanized CMT1A mice B6.Cg-Tg(PMP22)C3Fbas/J (three copies of the PMP22 gene), three groups of 8 animals each.\nDOSAGE: 180 mg/kg/day non-clinical grade AAT (Sigma)\nADMINISTRATION: Subcutaneous (SC) (bi-daily injection of 90 mg/kg)\nAnimals were received at 6 weeks of age and housed under controlled conditions for the duration of the study. The study comprised two groups of 8 transgenic mice (CMT mice) each and one group of 8 age matched wild type (WT) C57B16 mice, serving as positive control. Animals were assigned to the following subcutaneous treatments twice daily at 7:00 AM and 7:00 PM for 2 weeks, starting from 8 weeks and up to 10 weeks of age: • Wild-type (WT, no disease) mice receiving vehicle, 0.9% NaCl (positive control) • CMT1A mice receiving vehicle, 0.9% NaCl (negative control) • CMT1A mice receiving AAT at 90 mg/kg per injection (daily dose 180 mg/kg)\nThe efficacy parameters included: • neuromuscular performance (rotarod latency to fall and grip strength test), • sciatic nerve electrophysiology (CMAP amplitude and NCV) • cytokine (IL-6 and TNFα), as well as NfL analysis • sciatic nerve histology (number of axons and axonal diameter),\nOn the first day of treatment (Day 1), the neuromuscular and performance of animals was tested with a rotarod test and a grip strength test, as well as sciatic nerve electrophysiology test, which measured the compound muscle action potential (CMAP) and the nerve conduction velocity (NCV). After the last treatment on Day 15, these tests were repeated. Animals were then left untreated for 2 additional weeks to evaluate the duration of the treatment effect. Following the 2-week treatment-free period until 12 weeks of age (Day 30), the behavioural and electrophysiological tests were repeated."}, "[4]": {"conditions": "8 weeks old, CMT + hAAT 180 mg/kg/day SC, individual animal"}}, "note": "Where “and” joins values, the source holds several entries; their conditions need not be identical. Equal values may be shown once."}
{"substance": "alpha1-antitrypsin (AAT) protein", "values": [{"measurement": "IC50", "setting": "[1]", "value": 15.3, "unit": "µM"}, {"measurement": "Body weight, MEAN", "setting": "[2]; CMT1A + hAAT, 3rd column, head prints 6 weeks old, in g (unit assumed)", "value": 19.73}, {"measurement": "Body weight, individual mice", "setting": "[2]; CMT1A + hAAT, 3rd column, head prints 6 weeks old, listed as hAAT, in g (unit assumed)", "value": "19.6 and 20.5 and 19.1"}, {"measurement": "body weight loss in the AAT treated group compared to the vehicle group", "setting": "[2]; CMT1A mice, 50 mg/kg sc twice daily, two weeks", "value": "no observable body weight loss"}, {"measurement": "Rotarod latency (Mean ± SD)", "setting": "[3]; 8 weeks old (baseline, Day 1), CMT1A + AAT", "value": "38.76 ± 4.90", "unit": "s"}, {"measurement": "Rotarod latency, group Mean", "setting": "[3]; 8 weeks old, CMT + hAAT 180 mg/kg/day SC, 8 animals", "value": 62.63, "unit": "s"}, {"measurement": "Rotarod latency, Mean/animal", "setting": "[3]; [4]", "value": "63.15 s and 51.81 s and 53.95 s and 52.25 s and 38.51 s and 92.09 s and 74.02 s and 75.23 s"}, {"measurement": "Rotarod latency, set 1", "setting": "[3]; [4]", "value": "55.48 s and 48.88 s and 60.00 s and 47.76 s and 30.45 s and 96.29 s and 74.06 s and 68.88 s"}, {"measurement": "Rotarod latency, set 2", "setting": "[3]; [4]", "value": "61.08 s and 61.14 s and 48.80 s and 53.19 s and 62.45 s and 79.58 s and 65.45 s and 74.87 s"}, {"measurement": "Rotarod latency, set 3", "setting": "[3]; [4]", "value": "72.89 s and 45.41 s and 53.05 s and 55.82 s and 22.62 s and 100.40 s and 82.56 s and 81.93 s"}, {"measurement": "Rotarod latency (Mean ± SD)", "setting": "[3]; 10 weeks old (Day 15, after 2 weeks AAT 90 mg/kg sc twice daily)", "value": "57.77 ± 19.19", "unit": "s"}, {"measurement": "rotarod latency to fall vs untreated group", "setting": "[3]; 12 weeks of age, after 2-week treatment-free period", "value": "non-significantly different"}, {"measurement": "Rotarod latency (Mean ± SD)", "setting": "[3]; 12 weeks old (Day 30, after 2-week treatment-free period)", "value": "36.92 ± 1.66", "unit": "s"}]}
